Laboratory results from patent publication US20100112174A1, “LOW CALORIE SWEETENER COMPOSITIONS” (CARGILL, INCORPORATED, priority 2006, published 2010).

Assays:
human subjects = assay: Gastrointestinal tolerance study of iced cupcakes (Test Protocol 1; randomized, double-blind, crossover); type: in vivo; settings: after 24 hours; compared to SWEETENER 1
Excerpt: In many embodiments, the sweetener compositions of the invention have improved gastrointestinal tolerance in humans. For example, the sweetener compositions of the invention have improved gastrointestinal tolerance as compared to maltitol. Gastrointestinal tolerance can be measured, for example, using a randomized, double blind, crossover, repeated measure design protocol, such described in Test Protocol 1 in the Example section of the application. In a representative test, a test food comprising a sweetener to be tested is consumed by human subjects, and the subjects are required to complete a gastrointestinal survey at various intervals, prior to and after, consuming the test food. For example, the human subject may complete the survey at 0 hours (i.e., just prior to consuming the test food), 2 hours, 6 hours, 12 hours, and 24 hours after consuming the test food. The food is then rated at the various time periods for gastrointestinal tolerance as evidenced by gastrointestinal effects such as gastrointestinal rumbling, abdominal cramping, gas/bloating, excessive flatulence, loose stools, and diarrhea. […]
The study used a randomized, double-blind, crossover, repeated measure design. […] Diarrhea was recorded as a yes/no response. […]

[1] = in vivo; cited from earlier work

Row | SMILES | abdominal cramping (human subjects) | fraction absorbed in the small intestine and excreted unchanged in the urine [1]
1 | OC[C@@H](O)[C@@H](O[C@H]1O[C@H](CO)[C@@H](O)[C@H](O)[C@H]1O)[C@H](O)[C@@H](O)CO [COMP. SWEETENER A, Maltitol] | Significantly milder | 
2 | OC[C@@H](O)[C@@H](O)CO [Erythritol] |  | about 90%
